Experimental data published in patent US8088802B2, “N-phenylarylsulfonamide compound, pharmaceutical composition comprising the compound as active ingredient, synthetic intermediate for the compound and process for its preparation” (Ono Pharmaceutical Co., Ltd., priority 2001, dated 2012).
pIC50, pKi: −log10 of the molar value. Where a name gives a salt, the structure may show the parent alone.

Assays:
[1] = Stability measured on HPLC (Comparison Example 1); type: physicochemical; details: for Stability (in words): comment on Table 4
Experimental: A Comparison of the Stability of 4-methyl-2-thiazolylsulfonyl chloride with that of the Compound Prepared in Examples 8 and 9
The solution prepared in Reference Example 1 was concentrated under reduced pressure to give 4-methyl-2-thiazolylsulfonyl chloride. The stability of this compound and the compounds prepared in Examples 8 and 9 was measured on HPLC. The conditions of HPLC were as follows.
Column: YMC-Pack ODS-AM-302(4.6 mm*150 mm)
Eluting solvent: MeCN/3 mM tetra-n-butylammonium phosphate=40/60

mouse EP1 [2] = molecular target: T1, mouse EP1 (Mus musculus, UniProt P35375); assay: Receptor antagonism using cells expressing EP1 in the presence of BSA (intracellular calcium); type: cell-based; parameters: expressed in transfected cells; details: inhibition of PGE2 (100 nM)-induced increase of intracellular calcium; assay buffer with 1% (w/v) BSA
T1 sequence (P35375 1-405): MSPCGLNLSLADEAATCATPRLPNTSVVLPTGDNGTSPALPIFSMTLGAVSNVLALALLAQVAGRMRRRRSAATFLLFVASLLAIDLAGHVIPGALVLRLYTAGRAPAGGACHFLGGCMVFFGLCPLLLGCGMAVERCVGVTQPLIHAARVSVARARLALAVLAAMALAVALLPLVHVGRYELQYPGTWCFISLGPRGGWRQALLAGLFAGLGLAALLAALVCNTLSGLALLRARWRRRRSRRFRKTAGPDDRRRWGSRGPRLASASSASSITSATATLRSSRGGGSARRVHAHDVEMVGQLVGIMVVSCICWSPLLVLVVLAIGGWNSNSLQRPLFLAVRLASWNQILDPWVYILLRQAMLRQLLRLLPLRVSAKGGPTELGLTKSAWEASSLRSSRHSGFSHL
Experimental: (ii) Experimental Measurement of the Activity of Receptor Antagonism Using Cells Expressing Prostanoid Receptor Subtype EP1 in the Presence of BSA (Bovine Serum Albumin)
The cells expressing mouse EP1 receptor were seeded at 1×10^4 cells/well in 96 well plates and cultured for 2 days with 10% FBS (fetal bovine serum)/minimum essential medium Eagle alpha modification (αMEM) in the incubator (37° C., 5% CO2). The cells in each well were rinsed with phosphate buffer (PBS(−)), and load buffer was added. After incubation for 1 hour, the load buffer was discarded. After the addition of the assay buffer to each well, the cells were incubated in a dark place at room temperature for 1 hour. After the addition of a compound of the present invention (10 μl) and PGE2 (10 μl) which were prepared with assay buffer, intracellular calcium concentration was measured with Fluorescence drug screening system (FDSS-4000, Hamamatsu Photonics). A pair of fluorescence intensities emitted 500 nm by an excitation wavelength of each 340 nm and 380 nm was measured.
The EP1 antagonist activity was estimated as percent inhibition of the increase of intracellular calcium concentration induced by PGE2 (100 nM).
Load buffer: 10% FBS/αMEM containing 5 μM of Fura 2/AM, 20 μM of indomethacin, 2.5 mM of probenecid
Assay buffer: Hank's balanced salt solution (HBSS) containing 1% (w/v) BSA, 2 μM of indomethacin, 2.5 mM of probenecid and 10 mM of HEPES-NaOH

mouse EP1 [3] = molecular target: T1, mouse EP1; assay: Binding assay using expression cell of prostanoid receptor subtype (3H-PGE2 competition, membrane fraction); parameters: expressed in transfected cells; host or cells: CHO cells, membrane fraction; details: competition of 3H-PGE2 (2.5 nM) binding, CHO cell membrane fraction
Experimental: (i) Binding Assay Using Expression Cell of Prostanoid Receptor Subtype
The preparation of membrane fraction was carried out according to the method of Sugimoto et al. (J. Biol. Chem., 267, 6463-6466 (1992)), using expression CHO cell of prostanoid receptor subtype (mouse EP1, EP2, EP3α or EP4).
The standard assay mixture containing membrane fraction (0.5 mg/ml) and ^3H-PGE2 in a final volume of 200 μl was incubated for 1 hour at room temperature. The reaction was terminated by addition of ice-cold buffer (3 ml). The mixture was rapidly filtered through a glass filter (GF/B). The radioactivity associated with the filter was measured by liquid scintillation counting.
Kd and Bmax values were determined from Scatchard plots (Ann. N.Y. Acad. Sci., 51, 660 (1949)). Non-specific binding was calculated as the binding in the presence of an excess (2.5 μM) of unlabeled PGE2. In the experiment for competition of specific ^3H-PGE2 binding by the compound of the present invention, ^3H-PGE2 (2.5 nM) and the compound of the present invention were added. The following buffer was used in all reaction.
Buffer: potassium phosphate (pH 6.0, 10 mM), EDTA (1 mM), MgCl2 (10 mM) and NaCl (0.1 M).
The dissociation constant Ki (μM) of each compound was calculated by the following equation. Ki=IC50/(1+([C]/Kd))
wherein [C] is concentration of ^3H-PGE2 used in the reaction

EP1 receptor = assay: Inhibition of sulprostone-induced increase of intravesical pressure of bladder in rats; type: in vivo, rat; details: female Wistar rats, 1 mg/kg intraduodenal, 40 minutes after administration
Excerpt: (iii) Experiment to Assess the Inhibition of Sulprostone-Induced Increase of Intravesical Pressure of Bladder in Rats.
Female rats (Wistar) were anesthetized by urethane and their both ureters were ligated and cut off at the kidney side. The urinary bladder was incised its top and catheter was inserted. The other end of catheter was connected to the pressure transducer and the infusion pump. Repeated micturition reflex, which was induced by the continuous infusion of citrate buffer (pH 3.5) into the bladder, was recorded. The increase of micturition pressure was elicited by the subcutaneous injection of diclofenac (5 mg/kg) and sulprostone (300 μg/kg). Since such an increasing effect was not observed by the treatment of EP3 agonist, it was considered that this increase was caused by the activation of EP1 receptor. The inhibitory effects of the compound of the present invention on this increase of intravesical pressure were measured for 60 minutes after the intraduodenal administration (2 ml/kg).

SMILES | pIC50 (mouse EP1 [2]) | pKi (mouse EP1 [3]) | further results
Cc1csc(S(=O)(=O)Cl)n1 [4-methyl-2-thiazolylsulfonyl chloride, 4-methyl-2-thiazolylsulfonylchloride] |  |  | Residual Rate (%) ([1]; 1 °C, 24 hour): 102.0%; Residual Rate (%) ([1]; 1 °C, 48 hour): 96.3%; Residual Rate (%) ([1]; 1 °C, 72 hour): 98.6%; Residual Rate (%) ([1]; 20 °C, 24 hour): 71.4%; Residual Rate (%) ([1]; 20 °C, 48 hour): 20.6%; Residual Rate (%) ([1]; 20 °C, 66 hour): 2.0%; Residual Rate (%) ([1]; 40 °C, 16 hour): 60.9%; Residual Rate (%) ([1]; 40 °C, 24 hour): 7.6%; Stability (in words) [1]: stable at low temperature, but when subjected to room temperature or higher, it is hard to assure the stability
Cc1ccc(S(=O)(=O)N(CC(C)C)c2cc3c(cc2OCc2ccc(C(=O)O)cc2C)CCC3)o1 [Example 2 (33), 3-methyl-4-[6-[N-isobutyl-N-(5-methyl-2-furylsulfonyl)amino]indan-5-yloxymethyl]benzoic acid] | 8.39 | 8.18 | Inhibition (%) (40 minutes later) (EP1 receptor): 79 ± 11%
Cc1csc(S(=O)(=O)N(CC(C)C)c2ccc(C(F)(F)F)cc2OCc2ccc(/C=C/C(=O)O)cc2)n1 [Example 2 (41), 4-[2-[N-isobutyl-N-(4-methyl-2-thiazolylsulfonyl)amino]-5-trifluoromethylphenoxymethyl]cinnamic acid] | 7.60 | 8.82 | 
Cc1cc(OCc2ccc(-c3nnn[nH]3)cc2Cl)c(N(C(C)C)S(=O)(=O)c2cccnc2)cc1C [Example 3 (30), N-[4,5-dimethyl-2-[2-chloro-4-(5-tetrazolyl)phenylmethyloxy]phenyl]-N-isopropyl-3-pyridylsulfonylamide] | 8.43 | 9.10 | 
Cc1csc(S(=O)(=O)N(c2cc(C)c(C)cc2OCc2ccc(-c3noc(=O)[nH]3)cc2)C(C)C)n1 [Example 4 (14), N-[4,5-dimethyl-2-[4-(5-oxo-1,2,4-oxadiazol-3-yl)phenylmethyloxy]phenyl]-N-isopropyl-(4-methyl-2-thiazolyl)sulfonylamide] | 8.15 | 9.10 | 
Cc1csc(S(=O)(=O)On2nnc3ccccc32)n1 [Example 8, 1-(4-methylthiazol-2-ylsulfonyloxy)-1,2,3-benzotriazole] |  |  | Residual Rate (%) ([1]; 40 °C, 24 hour): 99.8%; Stability (in words) [1]: stable even at high temperature
Cc1csc(S(=O)(=O)n2cc[n+](C)c2)n1 [Example 9, 1-(4-methylthiazol-2-ylsulfonyl)-3-methylimidazol-1-onium hydrogen chloride salt] |  |  | Residual Rate (%) ([1]; 40 °C, 24 hour): 99.6%; Stability (in words) [1]: stable even at high temperature
Cc1ccc(N(CC(C)C)S(=O)(=O)c2ccco2)c(OCc2ccc(C(=O)O)cc2)c1 [Example 18 (93), reference compound] | 6.70 | 9.10 | 
Cc1ccc(OCc2ccc(C(=O)O)cc2)c(N(CC(C)C)S(=O)(=O)c2ccco2)c1 [Example 18 (113), reference compound] | 6.33 | 8.26 | 
CC(C)CN(c1ccc(Cl)cc1OCc1ccc(C(=O)O)cc1)S(=O)(=O)c1ccco1 [Example 18 (121), reference compound] | 6.59 | 9.00 | 

Second part, led by results:

pIC50 (mouse EP1 [2]) | pKi (mouse EP1 [3]) | SMILES | further results
8.14 | 9.49 | Cc1ccc(S(=O)(=O)N(CC(C)C)c2cc(C)c(C)cc2OCc2ccc(C(=O)O)cc2)o1 [Example 2 (6), 4-[2-[N-isobutyl-N-(5-methyl-2-furylsulfonyl)amino]-4,5-dimethylphenoxymethyl]benzoic acid] | 
7.68 | 8.10 | Cc1ccc(S(=O)(=O)N(CC(C)C)c2cc3c(cc2OCc2ccc(/C=C/C(=O)O)cc2)CCC3)o1 [Example 2 (32), 4-[6-[N-isobutyl-N-(5-methyl-2-furylsulfonyl)amino]indan-5-yloxymethyl]cinnamic acid] | 
8.14 | 8.85 | Cc1cc(OCc2ccc(C(=O)O)cc2C)c(N(CC(C)C)S(=O)(=O)c2ccccn2)cc1C [Example 2 (87), 3-methyl-4-[2-[N-isobutyl-N-(2-pyridylsulfonyl)amino]-4,5-dimethylphenoxymethyl]benzoic acid] | 
8.04 | 8.41 | Cc1cc(OCc2ccc(/C=C/C(=O)O)cc2C)c(N(CC(C)C)S(=O)(=O)c2cccnc2)cc1C [Example 2 (94), 3-methyl-4-[2-[N-isobutyl-N-(3-pyridylsulfonyl)amino]-4,5-dimethylphenoxymethyl]cinnamic acid] | 
8.11 | 8.38 | Cc1ccc(S(=O)(=O)N(CC(C)C)c2cc(C)c(C)cc2OCc2ccc(C(=O)O)cc2C)o1 [Example 2, 3-methyl-4-[2-[N-isobutyl-N-(5-methyl-2-furylsulfonyl)amino]-4,5-dimethylphenoxymethyl]benzoic acid] | Inhibition (%) (40 minutes later) (EP1 receptor): 68 ± 1%
8.31 | 8.64 | Cc1csc(S(=O)(=O)N(c2cc(C)c(Cl)cc2OCc2ccc(-c3nnn[nH]3)cc2C)C(C)C)n1 [Example 3 (11), N-[4-chloro-5-methyl-2-[2-methyl-4-(5-tetrazolyl)phenylmethyloxy]phenyl]-N-isopropyl-(4-methyl-2-thiazolyl)sulfonylamide] | 
5.87 | 8.89 | CC(C)CN(c1cc(Cl)ccc1OCc1ccc(C(=O)O)cc1)S(=O)(=O)c1ccco1 [Example 18 (125), reference compound] | 
